The target in this assay is T1, recombinant rat mGluR5 (Rattus norvegicus, UniProt P31424).
T1 construct: expressed in transfected cells
Put plainly: Functional calcium flux assay (FLIPR), antagonist evaluation against glutamate-evoked [Ca2+]i increase. The class given is cell-based. To be noted: HEK293 cells stably expressing recombinant rat mGluR5, 15 min incubation of test compound, then submaximal glutamate. As to the method: Functional Calcium Clux Assay Methodology
For functional assays, HEK293 cells stably expressing recombinant rat mGluR5 were seeded in 384-well plates and dye loaded using Fluo-8. Cells were then washed to remove the un-incorporated dye. Antagonist evaluation was performed following a 15 min incubation of the test compound followed by the addition of submaximal concentration of glutamate. Intracellular calcium ([Ca^2+]i) measurements were performed using a fluorometric imaging plate reader (FLIPR, Molecular Devices). The glutamate-evoked increase in [Ca^2′]i in the presence of the test compounds was compared to the response to glutamate alone (the positive control). Antagonist inhibition curves were fitted with a 4-parameter logistic equation giving IC50 values, and Hill coefficients using an iterative nonlinear curve fitting algorithm.
The tables below provide IC50 data in this assay. In the activity column, A=IC50>1,000 and ≤5,000 nM; B=IC50>500 and ≤1,000 nM and C=IC50≤500 nM.
On the technique in general: Calcium flux is commonly read through the fluorescence of an indicator in the cells.

The mark [1] stands for this setting: Table 1, read-out: IC50 value (FLIPR assay).
The mark [2] stands for this setting: Table 2, read-out: IC50 (FLIPR assay).

In US10941132B2, “Pyrazole derivatives” (HUA MEDICINE (SHANGHAI) Ltd., priority 2016, dated 2021) one finds IC50 data, which are given here for 46 compounds.

Structures are written as SMILES. Read-outs that look alike come from different tables or passages of the source.

T1 sequence (P31424 21-1203): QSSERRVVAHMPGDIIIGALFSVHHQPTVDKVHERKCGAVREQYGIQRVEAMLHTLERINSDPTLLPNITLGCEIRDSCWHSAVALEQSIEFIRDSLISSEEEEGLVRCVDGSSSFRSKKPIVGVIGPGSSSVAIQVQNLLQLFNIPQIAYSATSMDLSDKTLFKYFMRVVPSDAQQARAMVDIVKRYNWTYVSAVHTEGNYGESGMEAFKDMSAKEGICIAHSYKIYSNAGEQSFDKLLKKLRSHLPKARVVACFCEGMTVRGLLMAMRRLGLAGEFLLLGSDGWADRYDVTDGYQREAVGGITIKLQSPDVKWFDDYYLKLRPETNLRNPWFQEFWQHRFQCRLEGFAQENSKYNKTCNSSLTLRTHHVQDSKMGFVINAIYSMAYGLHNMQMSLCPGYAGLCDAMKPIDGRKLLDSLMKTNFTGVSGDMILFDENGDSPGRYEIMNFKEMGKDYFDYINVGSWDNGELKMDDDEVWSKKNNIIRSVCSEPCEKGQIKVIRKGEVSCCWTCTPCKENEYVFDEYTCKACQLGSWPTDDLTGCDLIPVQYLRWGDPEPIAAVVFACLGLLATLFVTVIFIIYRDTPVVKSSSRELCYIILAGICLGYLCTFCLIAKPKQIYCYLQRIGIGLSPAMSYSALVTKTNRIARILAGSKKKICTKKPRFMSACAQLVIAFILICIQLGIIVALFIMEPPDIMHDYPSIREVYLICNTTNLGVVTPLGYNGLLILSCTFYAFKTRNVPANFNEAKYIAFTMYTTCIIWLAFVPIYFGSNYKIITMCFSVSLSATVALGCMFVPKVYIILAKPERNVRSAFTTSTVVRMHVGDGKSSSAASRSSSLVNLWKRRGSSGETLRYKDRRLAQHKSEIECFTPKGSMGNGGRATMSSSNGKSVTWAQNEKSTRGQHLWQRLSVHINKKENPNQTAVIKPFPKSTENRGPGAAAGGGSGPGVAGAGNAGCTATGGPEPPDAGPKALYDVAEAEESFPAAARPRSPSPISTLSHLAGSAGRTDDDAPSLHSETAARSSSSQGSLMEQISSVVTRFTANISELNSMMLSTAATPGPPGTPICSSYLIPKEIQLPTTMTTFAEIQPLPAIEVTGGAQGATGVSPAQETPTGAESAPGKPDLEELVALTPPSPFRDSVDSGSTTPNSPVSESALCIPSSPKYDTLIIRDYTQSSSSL

As a reminder, the IC50 is the concentration needed to halve the response being measured. On to `Fc1ccc(-n2cc(C#Cc3cccnc3)cn2)cc1` [Compound 83, 3-((1-(4-fluorophenyl)-1H-pyrazol-4-yl)ethynyl)pyridine], for which the concentration for half-maximal inhibition (IC50) under setting [1] was at most 500 nM. For `Fc1ccc(-n2cc(C#Cc3cccc(Cl)c3)cn2)cc1` [Compound 84, 4-((3-chlorophenyl)ethynyl)-1-(4-fluorophenyl)-1H-pyrazole], the 50% inhibitory concentration (IC50) under setting [1] was at most 500 nM. Still for that read-out and setting: next, `Fc1ccc(-n2cc(C#Cc3ccnc(Cl)c3)cn2)cc1` [Compound 85, 2-chloro-4-((1-(4-fluorophenyl)-1H-pyrazol-4-yl)ethynyl)pyridine]: at most 500 nM; `Fc1ccc(-n2cc(C#Cc3ncccn3)cn2)cc1` [Compound 86, 2-((1-(4-fluorophenyl)-H-pyrazol-4-yl)ethynyl)pyrimidine]: at most 500 nM. Consider `Fc1ccc(-n2cc(C#Cc3ccncc3)cn2)cc1` [Compound 87], for which the IC50 under setting [1] is at most 500 nM. As to `Fc1ccc(-n2cc(C#Cc3cnccn3)cn2)cc1` [Compound 88, 2-((1-(4-fluorophenyl)-1H-pyrazol-4-yl)ethynyl)pyrazine], under setting [1], the IC50 was at most 500 nM. Regarding `FC(F)(F)Oc1ccc(-n2cc(C#Cc3ccccc3)cn2)cc1` [Compound 89, 4-(phenylethynyl)-1-(4-(trifluoromethoxy)phenyl)-1H-pyrazole], the IC50 under setting [1] fell in the range of 1000 to 5000 nM.

In the case of `FC(F)(F)Oc1ccc(-n2cc(C#Cc3ccccn3)cn2)cc1` [Compound 90, 2-((1-(4-(trifluoromethoxy)phenyl)-1H-pyrazol-4-yl)ethynyl)pyridine], the IC50 under setting [1] is at most 500 nM. As to `FC(F)(F)Oc1ccc(-n2cc(C#Cc3cccnc3)cn2)cc1` [Compound 91, 3-((1-(4-(trifluoromethoxy)phenyl)-H-pyrazol-4-yl)ethynyl)pyridine], the 50% inhibitory concentration (IC50) under setting [1] lay in the range of 1000 to 5000 nM. Regarding `FC(F)(F)Oc1ccc(-n2cc(C#Cc3cccc(Cl)c3)cn2)cc1` [Compound 92, 4-((3-chlorophenyl)ethynyl)-1-(4-(trifluoromethoxy)phenyl)-1H-pyrazole], the half-maximal inhibitory concentration (IC50) under setting [1] is at most 500 nM. For the compound `FC(F)(F)Oc1ccc(-n2cc(C#Cc3ncccn3)cn2)cc1` [Compound 93], the IC50 under setting [1] was at most 500 nM. Turning to `FC(F)(F)Oc1ccc(-n2cc(C#Cc3ccncc3)cn2)cc1` [Compound 94, 4-((1-(4-(trifluoromethoxy)phenyl)-1H-pyrazol-4-yl)ethynyl)pyridine], the IC50 under setting [1] was in the range of 500 to 1000 nM. Take `Cc1cc(C#Cc2ccccc2)nn1-c1cc(F)cc(C#N)c1` [Compound 96, 3-fluoro-5-(5-methyl-3-(phenylethynyl)-1H-pyrazol-1-yl) benzonitrile]: the half-inhibitory concentration (IC50) under setting [2] is at most 500 nM. With `Cc1cc(C#Cc2ccccn2)nn1-c1cc(F)cc(C#N)c1` [Compound 97, 3-fluoro-5-(5-methyl-3-(pyridin-2-ylethynyl)-1H-pyrazol-1-yl) benzonitrile], under setting [2], the IC50 is at most 500 nM. On to `Cc1cc(C#Cc2cccnc2)nn1-c1cc(F)cc(C#N)c1` [Compound 98, 3-fluoro-5-(5-methyl-3-(pyridin-3-ylethynyl)-1H-pyrazol-1-yl) benzonitrile], for which the IC50 under setting [2] is at most 500 nM. Regarding `Cc1cc(C#Cc2cccc(Cl)c2)nn1-c1cc(F)cc(C#N)c1` [Compound 99, 3-(3-((3-chlorophenyl)ethynyl)-5-methyl-1H-pyrazol-1-yl)-5-fluorobenzonitrile], the half-maximal inhibitory concentration (IC50) under setting [2] was at most 500 nM.

Consider `Cc1cc(C#Cc2ccnc(Cl)c2)nn1-c1cc(F)cc(C#N)c1` [Compound 100, 3-(3-((2-chloropyridin-4-yl)ethynyl)-5-methyl-1H-pyrazol-1-yl)-5-fluorobenzonitrile], for which the IC50 under setting [2] was at most 500 nM. Consider `Cc1cc(C#Cc2ncccn2)nn1-c1cc(F)cc(C#N)c1` [Compound 101, 3-fluoro-5-(5-methyl-3-(pyrimidin-2-ylethynyl)-H-pyrazol-1-yl) Benzonitrile], for which the concentration for half-maximal inhibition (IC50) under setting [2] is at most 500 nM. Still for that read-out and setting: the figure for `Cc1cc(C#Cc2ccncc2)nn1-c1cc(F)cc(C#N)c1` [Compound 102, 3-fluoro-5-(5-methyl-3-(pyridin-4-ylethynyl)-1H-pyrazol-1-yl) benzonitrile] is at most 500 nM. As for `Cc1cc(C#Cc2cnccn2)nn1-c1cc(F)cc(C#N)c1` [Compound 103, 3-fluoro-5-(5-methyl-3-(pyrazin-2-ylethynyl)-1H-pyrazol-1-yl) Benzonitrile], the half-maximal inhibitory concentration (IC50) under setting [2] was at most 500 nM. `N#Cc1cc(F)cc(-n2ccc(C#Cc3ccccc3)n2)c1` [Compound 104]: the 50% inhibitory concentration (IC50) under setting [2] was 1000 to 5000 nM. On the same count and under the same terms, next, `N#Cc1cc(F)cc(-n2ccc(C#Cc3ccccn3)n2)c1` [Compound 105, 3-fluoro-5-(3-(pyridin-2-ylethynyl)-1H-pyrazol-1-yl)benzonitrile]: at most 500 nM. The same measure, in the same setting: next, `N#Cc1cc(F)cc(-n2ccc(C#Cc3cccnc3)n2)c1` [Compound 106, 3-fluoro-5-(3-(pyridin-3-ylethynyl)-1H-pyrazol-1-yl)benzonitrile]: 1000 to 5000 nM; `N#Cc1cc(F)cc(-n2ccc(C#Cc3cccc(Cl)c3)n2)c1` [Compound 107, 3-(3-((3-chlorophenyl)ethynyl)-1H-pyrazol-1-yl)-5-fluorobenzonitrile]: at most 500 nM; `N#Cc1cc(F)cc(-n2ccc(C#Cc3ccnc(Cl)c3)n2)c1` [Compound 108, 3-(3-((2-chloropyridin-4-yl)ethynyl)-1H-pyrazol-1-yl)-5-fluorobenzonitrile]: at most 500 nM.

In the case of `N#Cc1cc(F)cc(-n2ccc(C#Cc3ncccn3)n2)c1` [Compound 109, 3-fluoro-5-(3-(pyrimidin-2-ylethynyl)-1H-pyrazol-1-yl)benzonitrile], the IC50 under setting [2] was at most 500 nM. For `N#Cc1cc(F)cc(-n2ccc(C#Cc3ccncc3)n2)c1` [Compound 110, 3-fluoro-5-(3-(pyridin-4-ylethynyl)-H-pyrazol-1-yl)benzonitrile], under setting [2], the IC50 is at most 500 nM. With `N#Cc1cc(F)cc(-n2ccc(C#Cc3cnccn3)n2)c1` [Compound 111, 3-fluoro-5-(3-(pyrazin-2-ylethynyl)-1H-pyrazol-1-yl)benzonitrile], the IC50 under setting [2] is at most 500 nM. In the case of `Fc1ccc(-n2ccc(C#Cc3ccccn3)n2)cc1` [Compound 112, 2-((1-(4-fluorophenyl)-1H-pyrazol-3-yl)ethynyl)pyridine], the IC50 under setting [2] was at most 500 nM.

Turning to `Fc1ccc(-n2ccc(C#Cc3ccccc3)n2)cc1` [Compound 113, 1-(4-fluorophenyl)-3-(phenylethynyl)-1H-pyrazole], under setting [2], the IC50 lay in the range of 1000 to 5000 nM.

On to `Fc1ccc(-n2ccc(C#Cc3cccnc3)n2)cc1` [Compound 114, 3-((1-(4-fluorophenyl)-1H-pyrazol-3-yl)ethynyl)pyridine], for which the IC50 under setting [2] lay within 1000 to 5000 nM.

Take `Fc1ccc(-n2ccc(C#Cc3cccc(Cl)c3)n2)cc1` [Compound 115, 3-((3-chlorophenyl)ethynyl)-1-(4-fluorophenyl)-1H-pyrazole]: the IC50 under setting [2] was in the range of 500 to 1000 nM. Turning to `Fc1ccc(-n2ccc(C#Cc3ccnc(Cl)c3)n2)cc1` [Compound 116, 2-chloro-4-((1-(4-fluorophenyl)-1H-pyrazol-3-yl)ethynyl)pyridine], the IC50 under setting [2] is at most 500 nM. As for `Fc1ccc(-n2ccc(C#Cc3ncccn3)n2)cc1` [Compound 117, 2-((1-(4-fluorophenyl)-1H-pyrazol-3-yl)ethynyl)pyrimidine], under setting [2], the IC50 is 500 to 1000 nM. For `Fc1ccc(-n2ccc(C#Cc3ccncc3)n2)cc1` [Compound 118, 4-((1-(4-fluorophenyl)-1H-pyrazol-3-yl)ethynyl)pyridine], the IC50 under setting [2] is at most 500 nM. On to `Fc1ccc(-n2ccc(C#Cc3cnccn3)n2)cc1` [Compound 119, 2-((1-(4-fluorophenyl)-H-pyrazol-3-yl)ethynyl)pyrazine], for which the IC50 under setting [2] fell in the range of 1000 to 5000 nM. For `FC(F)(F)Oc1ccc(-n2ccc(C#Cc3ccccc3)n2)cc1` [Compound 120], the IC50 under setting [2] lay within 1000 to 5000 nM. Turning to `FC(F)(F)Oc1ccc(-n2ccc(C#Cc3cccnc3)n2)cc1` [Compound 121, 3-((1-(4-(trifluoromethoxy)phenyl)-1H-pyrazol-3-yl)ethynyl) pyridine], the IC50 under setting [2] lay in the range of 1000 to 5000 nM. As for `FC(F)(F)Oc1ccc(-n2ccc(C#Cc3cccc(Cl)c3)n2)cc1` [Compound 122, 3-((3-chlorophenyl)ethynyl)-1-(4-(trifluoromethoxy)phenyl)-1H-pyrazole], the IC50 under setting [2] fell in the range of 1000 to 5000 nM.

Take `FC(F)(F)Oc1ccc(-n2ccc(C#Cc3ncccn3)n2)cc1` [Compound 123, 2-((1-(4-(trifluoromethoxy)phenyl)-1H-pyrazol-3-yl)ethynyl) pyrimidine]: the IC50 under setting [2] fell in the range of 1000 to 5000 nM. Take `FC(F)(F)Oc1ccc(-n2ccc(C#Cc3ccncc3)n2)cc1` [Compound 124, 4-((1-(4-(trifluoromethoxy)phenyl)-1H-pyrazol-3-yl)ethynyl) pyridine]: the IC50 under setting [2] lay in the range of 1000 to 5000 nM. For `FC(F)(F)Oc1ccc(-n2ccc(C#Cc3cnccn3)n2)cc1` [Compound 125, 2-((1-(4-(trifluoromethoxy)phenyl)-1H-pyrazol-3-yl)ethynyl) pyrazine], under setting [2], the 50% inhibitory concentration (IC50) fell in the range of 1000 to 5000 nM. In the case of `Cc1cc(C#Cc2ccccn2)nn1-c1ccc(F)cc1` [Compound 126], the 50% inhibitory concentration (IC50) under setting [2] was at most 500 nM. With `Cc1cc(C#Cc2cccnc2)nn1-c1ccc(F)cc1` [Compound 127, 3-((1-(4-fluorophenyl)-5-methyl-1H-pyrazol-3-yl)ethynyl)pyridine], the IC50 under setting [2] fell in the range of 1000 to 5000 nM. In the case of `Cc1cc(C#Cc2ncccn2)nn1-c1ccc(F)cc1` [Compound 128, 2-((1-(4-fluorophenyl)-5-methyl-1H-pyrazol-3-yl)ethynyl)], the IC50 under setting [2] is 1000 to 5000 nM. For `Cc1cc(C#Cc2cnccn2)nn1-c1ccc(F)cc1` [Compound 129, 2-((1-(4-fluorophenyl)-5-methyl-1H-pyrazol-3-yl)ethynyl)pyrazine], the half-inhibitory concentration (IC50) under setting [2] lay in the range of 1000 to 5000 nM.
